“Also recorded” adds a separate entry of the source.
Legend:
InhA [1] = target: T1, InhA (Mycobacterium tuberculosis, UniProt P9WGR1); assay: Spectrophotometric (340 nm) assay of InhA-catalyzed NADH-dependent reduction, substrate test and steady-state kinetics
InhA [2] = target: T1, InhA; assay: Microcalorimetry binding of adenine dinucleotides to InhA; set-up: species or system M. tuberculosis; conditions: for binding to InhA (in words): microcalorimetry, dinucleotide 0-100 μM
[3] = test system: NADH-dependent enoyl-CoA reductase of M. smegmatis; conditions: read-out: steady-state Michaelis constant; cited from earlier work
[4] = test system: Brassica enoyl-ACP reductase; conditions: read-out: steady-state Michaelis constant; cited from earlier work
[5] = test system: mycolic acid biosynthesis; format: biochemical, M. smegmatis
[6] = test system: NC(=O)C1=CN([C@@H]2O[C@H](COP(=O)(O)OP(=O)(O)OC[C@H]3O[C@@H](n4cnc5c(N)ncnc54)[C@H](O)[C@@H]3O)[C@@H](O)[C@H]2O)C=CC1; assay: purified protein, by the assay type; conditions: other: InhA-catalyzed reduction of 2-transoctenoyl-ACP, other substrate saturating

T1 sequence (P9WGR1 whole entry, looked up): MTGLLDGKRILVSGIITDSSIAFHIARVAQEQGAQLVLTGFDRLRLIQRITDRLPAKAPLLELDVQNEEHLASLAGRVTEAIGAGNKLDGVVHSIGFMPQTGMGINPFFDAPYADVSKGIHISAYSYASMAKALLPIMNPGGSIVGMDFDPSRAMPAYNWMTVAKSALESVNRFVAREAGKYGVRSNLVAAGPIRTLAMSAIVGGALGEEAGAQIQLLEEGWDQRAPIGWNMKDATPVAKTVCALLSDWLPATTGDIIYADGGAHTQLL

2-transoctenoyl-ACP
maximum velocity (InhA [1]; InhA-catalyzed reduction of 2-transoctenoyl-ACP by NADH): 1570 µM/min/mg | activity as substrate for InhA in the presence of NADH (InhA [1]; measured spectrophotometrically at 340 nm): Activity was demonstrated | Km (InhA [1]; read-out: steady-state Km, InhA-catalyzed reduction of 2-transoctenoyl-ACP, other substrate saturating): 2 µM

NC(=O)C1=CN([C@@H]2O[C@H](COP(=O)(O)OP(=O)(O)OC[C@H]3O[C@@H](n4cnc5c(N)ncnc54)[C@H](O)[C@@H]3O)[C@@H](O)[C@H]2O)C=CC1 [NADH]
binding stoichiometry, molecules per dimer of InhA (InhA [2]; 37° C., 50 mM Tris pH 7.3): two | enthalpy of binding (InhA [2]; 37° C., 50 mM Tris pH 7.3): -13.5 kcal/mol | binding to InhA (in words) (InhA [2]): tight and stoichiometric binding | Kd (InhA [2]; titration calorimetry, 37° C., 50 mM Tris pH 7.3, 100 μM InhA, read-out: Kd (binding constant) for binding to InhA): 2 µM | Km [3]: 21 µM | Km [4]: 7.6 µM

NC(=O)C1=CN([C@@H]2O[C@H](COP(=O)(O)OP(=O)(O)OC[C@H]3O[C@@H](n4cnc5c(N)ncnc54)[C@H](OP(=O)(O)O)[C@@H]3O)[C@@H](O)[C@H]2O)C=CC1 [NADPH]
binding to InhA (in words) (InhA [2]): Neither NADPH, NADP nor NAD exhibited significant binding; also recorded: failed to show appreciable binding affinity

NC(=O)c1ccc[n+]([C@@H]2O[C@H](COP(=O)([O-])OP(=O)(O)OC[C@H]3O[C@@H](n4cnc5c(N)ncnc54)[C@H](OP(=O)(O)O)[C@@H]3O)[C@@H](O)[C@H]2O)c1 [NADP]
binding to InhA (in words) (InhA [2]): Neither NADPH, NADP nor NAD exhibited significant binding; also recorded: failed to show appreciable binding affinity

NC(=O)c1ccc[n+]([C@@H]2O[C@H](COP(=O)([O-])OP(=O)(O)OC[C@H]3O[C@@H](n4cnc5c(N)ncnc54)[C@H](O)[C@@H]3O)[C@@H](O)[C@H]2O)c1 [NAD]
binding to InhA (in words) (InhA [2]): Neither NADPH, NADP nor NAD exhibited significant binding; also recorded: failed to show appreciable binding affinity

NNC(=O)c1ccncc1 [isoniazid]
isoniazid-inhibition of mycolic acid biosynthesis (in words) [5]: marked resistance to isoniazid-inhibition

CCCCC/C=C/C(=O)SCCNC(=O)CCNC(=O)[C@H](O)C(C)(C)COP(=O)(O)OP(=O)(O)OC[C@H]1O[C@@H](n2cnc3c(N)ncnc32)[C@H](O)[C@@H]1OP(=O)(O)O [octenoyl-CoA]
Km [3]: 232 µM

InhA (Mycobacterium tuberculosis H37Rv)
Km [6]: 8 µM

octenoyl-ACP
Km [4]: < 1 µM

— patent publication US5702935A, “Method and compounds for inhibiting lipid biosynthesis of bacteria and plants” (priority 1994, dated 1997)
